Patent EP4786487A1, “PEPTIDE” (Peptidream Inc, priority 2023, dated 2025)
Like-named read-outs stand apart in the source and are kept apart here. Starred links: 1 amine or outer side, 2 acyl side, 3 side chain; linkers in the order of their positions; H or OH if unused. Positions of bridges follow the written chain, without caps; N, C: chain ends. Non-standard residues stand in square brackets, D forms with d. Residues, ends and D or L forms follow the SMILES beside them. Groups on a side chain read outwards from the residue. *: point of attachment. X13 = O=C(O)c1ccc(-n2cc(C[C@H](N[*:1])C(=O)[*:2])c3ccccc32)cc1; Phe(3-OCH2COOH) = N[C@@H](Cc1cccc(OCC(=O)O)c1)C(=O)O; NMePhe(4-CH2NH2) = CN[C@@H](Cc1ccc(CN)cc1)C(=O)O; Piperidine(4-CH2CH2CONH2) = NC(=O)CCC1CCN(*)CC1; Phe(4-COOH) = N[C@@H](Cc1ccc(C(=O)O)cc1)C(=O)O; Piperazinyl(4-CH2COOH) = O=C(O)CN1CCN(*)CC1; Piperidinyl(4-CH2COOH) = O=C(O)CC1CCN(*)CC1; Gly(N(CH2)3COOH) = O=C(O)CCCNCC(=O)O; X1 = CCCCCCC[C@H](N[*:1])C(=O)[*:2]; NMeF = CN[C@@H](Cc1ccccc1)C(=O)O; NMeE = CN[C@@H](CCC(=O)O)C(=O)O; dAad = N[C@H](CCCC(=O)O)C(=O)O; NMeA = CN[C@@H](C)C(=O)O; X9 = NC(=O)CC1CCN(*)CC1; CO = O=C([*:1])[*:2]; Inp = O=C(O)C1CCNCC1; Sar = CNCC(=O)O

Experiments:
Myostatin = molecular target: T1, Myostatin (Homo sapiens, UniProt O14793); experiment: HepG2 reporter gene assay, Evaluation Procedure (2): 2-concentrations assay, myostatin inhibition; type: cell-based; conditions: Table 7-3/7-4, myostatin 10 ng/mL, HepG2, read-out: inhibition rate (myostatin inhibition assay); for inhibition at 0.1 µM: peptide at the higher of the 2 concentrations; for inhibition at 0.03 µM: peptide at the lower of the 2 concentrations
T1 construct: active myostatin (also called mature myostatin) is a homodimer consisting of two C-terminal growth factor domains; purchased R&D systems 788-G8/CF
T1 sequence (O14793 267-375): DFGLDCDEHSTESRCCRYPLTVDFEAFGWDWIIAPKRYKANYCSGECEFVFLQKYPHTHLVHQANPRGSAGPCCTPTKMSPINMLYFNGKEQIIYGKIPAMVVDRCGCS
How it was run: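 Myostatin inhibition was measured in a luciferase reporter assay using HepG2 cells transfected with a pGL3 vector containing 12 CAGA repeats upstream of luciferase. After 20 to 24 hours with 10 ng/mL myostatin, cells received One-Glo:PBS (1:1) at 100 µL/well, were shaken for 5 min, and 20 µL/well was moved to 384-well plates and read on an Envision 2104.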

GDF-11 = molecular target: T2, GDF-11 (Homo sapiens, UniProt O95390); experiment: HepG2 reporter gene assay, Evaluation Procedure (2): 2-concentrations assay, GDF-11 inhibition; type: cell-based; conditions: read-out: inhibition rate (GDF-11 inhibition assay)
T2 construct: purchased R&D systems 1958-GD-G8/CF
T2 sequence (O95390 299-407): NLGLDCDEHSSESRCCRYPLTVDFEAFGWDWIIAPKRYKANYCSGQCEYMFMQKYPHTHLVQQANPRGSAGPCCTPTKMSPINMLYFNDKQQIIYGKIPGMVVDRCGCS
How it was run: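 HepG2 cells carrying the transfected pGL3(CAGA)12-luc reporter, a pGL3 vector with luciferase placed downstream of 12 CAGA repeats, were stimulated with GDF-11 at a final 10 ng/mL together with test peptide. Blank wells received no GDF-11 and no peptide. Plates were incubated 20 to 24 hours at 37°C with 5% CO2. Luminescence from One-Glo substrate was read to calculate percent inhibition.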

[1] = HepG2, first GDF-11 column of Table 7-3/7-4, GDF-11 10 ng/mL, peptide at the lower of the 2 concentrations
[2] = HepG2, second GDF-11 column of Table 7-3/7-4, GDF-11 10 ng/mL, peptide at the higher of the 2 concentrations

Structure (SMILES) | inhibition at 0.1 µM (Myostatin) [%] | inhibition at 0.03 µM (Myostatin) [%] | inhibition (GDF-11; [1]) [%] | inhibition (GDF-11; [2]) [%]
CCCCCCC[C@@H]1NC(=O)[C@@H]2Cc3ccc(cc3)CNC(=O)CC[C@@H](C(=O)N[C@@H](C)C(=O)N[C@@H](Cc3cn(-c4ccc(C(=O)O)cc4)c4ccccc34)C(=O)N[C@@H](Cc3ccc(O)cc3)C(=O)N(C)[C@@H](Cc3ccccc3)C(=O)N[C@@H]([C@@H](C)CC)C(=O)N3CCC[C@@H]3C(=O)N[C@@H](Cc3cccc(OCC(=O)O)c3)C(=O)N[C@@H](Cc3ccc(C(=O)O)cc3)C(=O)N[C@@H](CCCNC(=N)N)C(=O)N2C)N(C)C(=O)CSC[C@H](C(=O)O)NC(=O)[C@H](Cc2ccccc2)N(C)C(=O)[C@H](C)N(C)C1=O [Myostatin_99_v423] ({CH2CO}-[NMeE]A[X13]Y[NMeF]I[dP][Phe(3-OCH2COOH)][Phe(4-COOH)]R[NMePhe(4-CH2NH2)][X1][NMeA][NMeF][dC]-OH; lactam 1-11; thioether N-15) | 100 | 100 | 0 | 0
CCCCCCC[C@@H]1NC(=O)[C@H](Cc2ccccc2)N(C)C(=O)[C@H](CCCNC(=N)N)NC(=O)[C@H](Cc2ccc(C(=O)O)cc2)NC(=O)[C@H](Cc2cccc(OCC(=O)O)c2)NC(=O)CN(C)C(=O)[C@H]([C@@H](C)CC)NC(=O)[C@H](Cc2ccccc2)N(C)C(=O)[C@H](Cc2ccc(O)cc2)NC(=O)[C@H](Cc2c[nH]c3ccccc23)NC(=O)[C@H](C)NC(=O)[C@H](C)NC(=O)CSC[C@H](C(=O)N[C@@H](CCCCNC(=O)N2CCN(CC(=O)O)CC2)C(=O)O)NC(=O)[C@H](Cc2ccccc2)N(C)C(=O)[C@H](C)N(C)C1=O [Myostatin_99_v427] ({CH2CO}-AAWY[NMeF]I[Sar][Phe(3-OCH2COOH)][Phe(4-COOH)]R[NMeF][X1][NMeA][NMeF][dC]K([CO-Piperazinyl(4-CH2COOH)])-OH; thioether N-15) | 100 | 98 | 0 | 0
CCCCCCC[C@@H]1NC(=O)[C@H](Cc2ccccc2)N(C)C(=O)[C@H](CCCNC(=N)N)NC(=O)[C@H](Cc2ccc(C(=O)O)cc2)NC(=O)[C@H](Cc2cccc(OCC(=O)O)c2)NC(=O)[C@H](C)N(C)C(=O)[C@H]([C@@H](C)CC)NC(=O)[C@H](Cc2ccccc2)N(C)C(=O)[C@H](Cc2ccc(O)cc2)NC(=O)[C@H](Cc2c[nH]c3ccccc23)NC(=O)[C@H](C)NC(=O)CN(CCCC(=O)O)C(=O)CSC[C@H](C(=O)N[C@@H](CCCCNC(=O)N2CCN(CC(=O)O)CC2)C(=O)O)NC(=O)[C@H](Cc2ccccc2)N(C)C(=O)[C@H](C)N(C)C1=O [Myostatin_99_v428] ({CH2CO}-[Gly(N(CH2)3COOH)]AWY[NMeF]I[NMeA][Phe(3-OCH2COOH)][Phe(4-COOH)]R[NMeF][X1][NMeA][NMeF][dC]K([CO-Piperazinyl(4-CH2COOH)])-OH; thioether N-15) | 99 | 96 | 0 | 0
CCCCCCC[C@@H]1NC(=O)[C@H](Cc2ccccc2)N(C)C(=O)[C@H](CCCNC(=N)N)NC(=O)[C@H](Cc2ccc(C(=O)O)cc2)NC(=O)[C@H](Cc2cccc(OCC(=O)O)c2)NC(=O)[C@H](C)N(C)C(=O)[C@H]([C@@H](C)CC)NC(=O)[C@H](Cc2ccccc2)N(C)C(=O)[C@H](Cc2ccc(O)cc2)NC(=O)[C@H](Cc2c[nH]c3ccccc23)NC(=O)[C@H](C)NC(=O)CN(CCCC(=O)O)C(=O)CSC[C@H](C(=O)N2CCN(CC(=O)O)CC2)NC(=O)[C@H](Cc2ccccc2)N(C)C(=O)[C@H](C)N(C)C1=O [Myostatin_99_v429] ({CH2CO}-[Gly(N(CH2)3COOH)]AWY[NMeF]I[NMeA][Phe(3-OCH2COOH)][Phe(4-COOH)]R[NMeF][X1][NMeA][NMeF][dC]-{Piperazinyl(4-CH2COOH)}; thioether N-15) | 100 | 100 | 0 | 0
CCCCCCC[C@@H]1NC(=O)[C@H](Cc2ccccc2)N(C)C(=O)[C@H](CCCNC(=N)N)NC(=O)[C@H](Cc2ccc(C(=O)O)cc2)NC(=O)[C@H](Cc2cccc(OCC(=O)O)c2)NC(=O)[C@H](C)N(C)C(=O)[C@H]([C@@H](C)CC)NC(=O)[C@H](Cc2ccccc2)N(C)C(=O)[C@H](Cc2ccc(O)cc2)NC(=O)[C@H](Cc2c[nH]c3ccccc23)NC(=O)[C@H](C)NC(=O)CN(CCCC(=O)O)C(=O)CSC[C@H](C(=O)N2CCC(CC(=O)O)CC2)NC(=O)[C@H](Cc2ccccc2)N(C)C(=O)[C@H](C)N(C)C1=O [Myostatin_99_v430] ({CH2CO}-[Gly(N(CH2)3COOH)]AWY[NMeF]I[NMeA][Phe(3-OCH2COOH)][Phe(4-COOH)]R[NMeF][X1][NMeA][NMeF][dC]-{Piperidinyl(4-CH2COOH)}; thioether N-15) | 100 | 100 | 0 | 0
CCCCCCC[C@@H]1NC(=O)[C@H](Cc2ccccc2)N(C)C(=O)[C@H](CCCNC(=N)N)NC(=O)[C@H](Cc2ccc(C(=O)O)cc2)NC(=O)[C@H](Cc2cccc(OCC(=O)O)c2)NC(=O)[C@H](C)N(C)C(=O)[C@H]([C@@H](C)CC)NC(=O)[C@H](Cc2ccccc2)N(C)C(=O)[C@H](Cc2ccc(O)cc2)NC(=O)[C@H](Cc2c[nH]c3ccccc23)NC(=O)[C@H](C)NC(=O)CN(CCCC(=O)O)C(=O)CSC[C@H](C(=O)N2CCC(CCC(N)=O)CC2)NC(=O)[C@H](Cc2ccccc2)N(C)C(=O)[C@H](C)N(C)C1=O [Myostatin_99_v431] ({CH2CO}-[Gly(N(CH2)3COOH)]AWY[NMeF]I[NMeA][Phe(3-OCH2COOH)][Phe(4-COOH)]R[NMeF][X1][NMeA][NMeF][dC]-{Piperidine(4-CH2CH2CONH2)}; thioether N-15) | 100 | 100 | 0 | 0
CCCCCCC[C@@H]1NC(=O)[C@H](Cc2ccccc2)N(C)C(=O)[C@H](CCCNC(=N)N)NC(=O)[C@H](Cc2ccc(C(=O)O)cc2)NC(=O)[C@H](Cc2cccc(OCC(=O)O)c2)NC(=O)[C@H](C)N(C)C(=O)[C@H]([C@@H](C)CC)NC(=O)[C@H](Cc2ccccc2)N(C)C(=O)[C@H](Cc2ccc(O)cc2)NC(=O)[C@H](Cc2c[nH]c3ccccc23)NC(=O)[C@H](C)NC(=O)CN(CCCC(=O)O)C(=O)CSC[C@H](C(=O)N2CCC(CC(N)=O)CC2)NC(=O)[C@H](Cc2ccccc2)N(C)C(=O)[C@H](C)N(C)C1=O [Myostatin_99_v432] ({CH2CO}-[Gly(N(CH2)3COOH)]AWY[NMeF]I[NMeA][Phe(3-OCH2COOH)][Phe(4-COOH)]R[NMeF][X1][NMeA][NMeF][dC]-X9; thioether N-15) | 100 | 100 | 0 | 0
CCCCCCC[C@@H]1NC(=O)[C@H](Cc2ccccc2)N(C)C(=O)[C@H](CCCNC(=N)N)NC(=O)[C@H](Cc2ccc(C(=O)O)cc2)NC(=O)[C@H](Cc2cccc(OCC(=O)O)c2)NC(=O)[C@H](C)N(C)C(=O)[C@H]([C@@H](C)CC)NC(=O)[C@H](Cc2ccccc2)N(C)C(=O)[C@H](Cc2ccc(O)cc2)NC(=O)[C@H](Cc2c[nH]c3ccccc23)NC(=O)[C@H](C)NC(=O)CN(CCCC(=O)O)C(=O)CSC[C@H](C(=O)N2CCC(C(N)=O)CC2)NC(=O)[C@H](Cc2ccccc2)N(C)C(=O)[C@H](C)N(C)C1=O [Myostatin_99_v433] ({CH2CO}-[Gly(N(CH2)3COOH)]AWY[NMeF]I[NMeA][Phe(3-OCH2COOH)][Phe(4-COOH)]R[NMeF][X1][NMeA][NMeF][dC][Inp]-NH2; thioether N-15) | 100 | 100 | 0 | 0
CCCCCCC[C@@H]1NC(=O)[C@H](Cc2ccccc2)N(C)C(=O)[C@H](CCCNC(=N)N)NC(=O)[C@H](Cc2ccc(C(=O)O)cc2)NC(=O)[C@H](Cc2cccc(OCC(=O)O)c2)NC(=O)[C@H](C)N(C)C(=O)[C@H]([C@@H](C)CC)NC(=O)[C@H](Cc2ccccc2)N(C)C(=O)[C@H](Cc2ccc(O)cc2)NC(=O)[C@H](Cc2c[nH]c3ccccc23)NC(=O)[C@H](C)NC(=O)CN(CCCC(=O)O)C(=O)CCC[C@H](C(=O)O)NC(=O)[C@H](Cc2ccccc2)N(C)C(=O)[C@H](C)N(C)C1=O [Myostatin_99_v434] ([Gly(N(CH2)3COOH)]AWY[NMeF]I[NMeA][Phe(3-OCH2COOH)][Phe(4-COOH)]R[NMeF][X1][NMeA][NMeF][dAad]-OH; lactam N-15) | 100 | 98 | 0 | 0
